In data set [1] the target is T1, Undecaprenyl pyrophosphate synthase (UPPS) (Helicobacter pylori, UniProt P55984).
T1 sequence (P55984 1-234): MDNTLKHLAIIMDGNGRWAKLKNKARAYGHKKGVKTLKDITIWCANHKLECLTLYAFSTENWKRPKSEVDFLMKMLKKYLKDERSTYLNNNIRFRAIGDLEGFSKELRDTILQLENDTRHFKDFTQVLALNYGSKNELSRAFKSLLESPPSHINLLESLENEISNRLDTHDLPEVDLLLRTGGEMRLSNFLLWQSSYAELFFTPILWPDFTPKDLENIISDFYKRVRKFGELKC
As to the kind of experiment: enzyme activity dose-response with […] UPPS. It counts as biochemical.

The target in data set [2] is T2, Undecaprenyl pyrophosphate synthase (UPPS) (Escherichia coli, UniProt P60472).
T2 construct: gene ispU
In words: enzyme activity dose-response with […] UPPS. Format: biochemical.

Data set [3] deals with Undecaprenyl pyrophosphate synthase (UPPS) (Helicobacter pylori, UniProt P55984, C234A).
The subject of data set [4] is C=C(C)CCO[P@@](=O)(O)OP(=O)(O)O. In words: steady-state enzyme kinetics (Km). It counts as biochemical, Helicobacter pylori. The following applies: Mg2+.
Data set [5] deals with CC(C)=CCC/C(C)=C/CC/C(C)=C/CO[P@@](=O)(O)OP(=O)(O)O. In words: steady-state enzyme kinetics (Km). The following applies: Mg2+. Format: biochemical, Helicobacter pylori.
Substrate in data set [6]: CC(C)=CCC/C(C)=C/CC/C(C)=C/CO[P@@](=O)(O)OP(=O)(O)O
In words: steady-state enzyme kinetics (Km). It counts as biochemical, Helicobacter pylori. As to conditions: Mg2+. The source holds these as a separate data set.

Substrate in data set [7]: C=C(C)CCO[P@@](=O)(O)OP(=O)(O)O
In words: steady-state enzyme kinetics (Km). It counts as biochemical, Helicobacter pylori. The following applies: Mg2+. This is another data set of the same source.

T2 sequence (P60472 whole entry): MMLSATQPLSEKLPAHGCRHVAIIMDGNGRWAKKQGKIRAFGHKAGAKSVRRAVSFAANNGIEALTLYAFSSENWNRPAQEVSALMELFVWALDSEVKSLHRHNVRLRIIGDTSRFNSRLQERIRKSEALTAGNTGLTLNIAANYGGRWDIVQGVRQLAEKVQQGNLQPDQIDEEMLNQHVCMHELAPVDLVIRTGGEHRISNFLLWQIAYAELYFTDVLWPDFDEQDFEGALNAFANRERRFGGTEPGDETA

For orientation: IC50 means the concentration at which inhibition is half-maximal. A lower IC50 goes with inhibition by little substance. In the case of `O=S(=O)(CS(=O)(=O)Nc1nc2ccc(Cl)cc2s1)Nc1nc2ccc(Cl)cc2s1` [BTB06061], the IC50 in data set [1] stood at 350 µM; in data set [2], 71 µM.

With `NS(=O)(=O)c1cccc(-c2ccc(C3Nc4ccccc4-c4nc5ccccc5n43)o2)c1` (centres unmarked) [HTS04781], the IC50 in data set [1] was 362 µM.

With `O=P(O)(O)OP(=O)(O)O` [pyrophosphate], the “X-ray crystal structure at 2.5 Å (crystals soaked with FsPP, IPP and MgCl2); only” value in data set [3] is “only the pyrophosphate of FsPP was found in the complex structure”.

Broadly, the Km is the substrate concentration at which the rate is half of its maximum. For the molecule “Undecaprenyl pyrophosphate synthase (UPPS) (Helicobacter pylori 26695; C234A)”, the Km was determined as 9.6 ± 0.2 µM in data set [4] and 0.15 ± 0.04 µM in data set [5].

B1: Undecaprenyl pyrophosphate synthase (UPPS) (Helicobacter pylori 26695) (protein)
chain: T1 sequence (P55984 1-234)
On to B1, for which the Km in data set [6] was 0.11 ± 0.02 µM; in data set [7] it was 9.2 ± 0.1 µM.

The values are drawn from article PMC2276626, “Structure-Based Inhibitors Exhibit Differential Activities against Helicobacter pylori and Escherichia coli Undecaprenyl Pyrophosphate Synthases” (Journal of Biomedicine and Biotechnology, 2008).
